From the NIST ThermoML archive (doi:10.1016/j.jct.2013.10.039)

Conditions: Liquid, Closed cell (Static) method

Cc1ccc(C)o1 [2,5-dimethylfuran]
Conditions	vapor or sublimation pressure [kPa]
313.15 K	13.94
323.15 K	21.54
333.15 K	32.2
343.15 K	46.74
353.15 K	66.08
363.15 K	91.23
373.15 K	123.28
383.15 K	163.43
393.15 K	212.88

OCc1ccco1 [2-hydroxymethylfuran]
Conditions	vapor or sublimation pressure [kPa]
273.11 K	0.009
283.08 K	0.022
293.16 K	0.053
303.09 K	0.115
313.15 K	0.242
323.15 K	0.475
323.16 K	0.471
331.87 K	0.815
333.15 K	0.89
333.17 K	0.882
341.85 K	1.479
343.15 K	1.597
343.19 K	1.611
351.81 K	2.577
353.15 K	2.755
353.2 K	2.787
362.09 K	4.368
363.15 K	4.588
363.2 K	4.649
372.04 K	7.065
373.15 K	7.398
382.09 K	11.09
383.15 K	11.59
392.15 K	17.1
393.15 K	17.68
402.18 K	25.11
412.11 K	36.53

CC(=O)CC(C)C [4-methylpentan-2-one]
Conditions	vapor or sublimation pressure [kPa]
313.15 K	5.882
323.15 K	9.417
331.98 K	13.85
333.15 K	14.56
341.81 K	20.72
343.15 K	21.82
351.81 K	30.29
353.15 K	31.8
362.04 K	43.51
363.15 K	45.19
372.03 K	60.56
373.15 K	62.78
382.04 K	82.62
383.15 K	85.44
392.07 K	110.74
393.15 K	114.12
